For the assay, the target named is T1, NBCe2 (Rattus norvegicus, UniProt Q6RI88).
T1 construct: gene Slc4a5
T1 sequence (Q6RI88 1-1112): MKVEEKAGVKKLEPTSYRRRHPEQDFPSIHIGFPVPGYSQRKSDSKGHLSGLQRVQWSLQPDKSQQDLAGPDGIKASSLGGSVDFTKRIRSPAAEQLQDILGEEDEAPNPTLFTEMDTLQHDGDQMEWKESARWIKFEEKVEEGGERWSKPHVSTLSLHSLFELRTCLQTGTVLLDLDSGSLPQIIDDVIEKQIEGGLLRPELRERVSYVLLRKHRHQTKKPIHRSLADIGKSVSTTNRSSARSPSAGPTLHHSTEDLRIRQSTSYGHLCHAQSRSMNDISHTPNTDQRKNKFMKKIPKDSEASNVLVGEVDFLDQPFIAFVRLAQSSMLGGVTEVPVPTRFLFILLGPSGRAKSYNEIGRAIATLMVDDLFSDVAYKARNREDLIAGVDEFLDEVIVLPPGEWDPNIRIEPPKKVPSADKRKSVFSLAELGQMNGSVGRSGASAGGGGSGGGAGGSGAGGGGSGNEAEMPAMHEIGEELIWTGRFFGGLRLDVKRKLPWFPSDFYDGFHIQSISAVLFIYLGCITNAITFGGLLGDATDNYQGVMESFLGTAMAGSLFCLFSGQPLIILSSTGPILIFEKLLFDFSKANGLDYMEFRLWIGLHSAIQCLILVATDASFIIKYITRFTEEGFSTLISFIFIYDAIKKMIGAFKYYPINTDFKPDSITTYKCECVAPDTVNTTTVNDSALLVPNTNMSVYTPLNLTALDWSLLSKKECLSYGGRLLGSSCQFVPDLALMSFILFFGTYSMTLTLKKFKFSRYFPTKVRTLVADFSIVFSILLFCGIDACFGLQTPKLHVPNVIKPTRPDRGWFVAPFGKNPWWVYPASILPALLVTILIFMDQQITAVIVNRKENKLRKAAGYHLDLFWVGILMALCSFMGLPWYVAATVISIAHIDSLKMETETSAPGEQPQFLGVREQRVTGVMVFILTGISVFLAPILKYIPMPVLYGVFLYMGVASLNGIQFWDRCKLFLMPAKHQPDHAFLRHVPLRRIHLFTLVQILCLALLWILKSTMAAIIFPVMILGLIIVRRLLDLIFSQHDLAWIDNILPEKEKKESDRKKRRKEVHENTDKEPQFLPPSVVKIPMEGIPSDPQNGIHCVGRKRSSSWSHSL
The assay can be described thus: two-electrode voltage clamp of rat NBCe2 expressed in Xenopus laevis oocytes. It counts as cell-based. (In general: In two-electrode clamp one electrode senses voltage and the other passes current.)

What is called IC50 is the concentration needed to halve the response being measured. A higher IC50 goes with weaker potency. Regarding `O=S(=O)(O)c1cc(N=C=S)ccc1/C=C/c1ccc(N=C=S)cc1S(=O)(=O)O` [DIDS], it took 4.5 ± 1.8 µM to reach half-maximal inhibition (IC50).
In turn, `Cc1ccc(CN(Cc2ccc(-c3ccccc3S(=O)(=O)NC#N)cc2)C(=O)c2ccccc2Cl)cc1` [S0859] gave an IC50 of 10.7 ± 0.9 µM.

Values taken from PMC9422132, “Membrane transporters control cerebrospinal fluid formation independently of conventional osmosis to modulate intracranial pressure” (Fluids and Barriers of the CNS, 2022).
